Drawing on patent publication US20130217664A1, “NOVEL COMPOUNDS USEFUL FOR THE TREATMENT OF DEGENERATIVE AND INFLAMMATORY DISEASES” (priority 2012, published 2013), this text covers IC50 for 18 molecules.

In general, IC50 refers to the concentration at which inhibition is half-maximal.

Like-named read-outs stand apart in the source and are kept apart here. A value given as a limit tells only on which side of the number the result lay.

For one assay, the target named is T1, human TYK2 (Homo sapiens, UniProt P29597).
T1 construct: catalytic domain (amino acids 871-1187; catalog number 08-147); purchased Carna Biosciences 08-147
T1 sequence (P29597 871-1187): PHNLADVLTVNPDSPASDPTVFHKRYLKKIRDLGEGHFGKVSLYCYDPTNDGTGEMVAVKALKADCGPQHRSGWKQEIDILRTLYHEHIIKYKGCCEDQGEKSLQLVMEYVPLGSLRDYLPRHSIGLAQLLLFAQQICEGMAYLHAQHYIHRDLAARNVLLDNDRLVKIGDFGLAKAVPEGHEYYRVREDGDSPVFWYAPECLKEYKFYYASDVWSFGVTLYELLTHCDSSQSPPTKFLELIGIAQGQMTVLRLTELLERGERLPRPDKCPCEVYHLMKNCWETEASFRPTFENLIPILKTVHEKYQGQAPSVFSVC
The assay is described as follows: TYK2 inhibition assay. Conditions: recombinant human TYK2 catalytic domain, polyGT substrate. Type of assay: biochemical. The method in brief:
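Radiometric kinase reaction run 90 min at 30 °C, stopped with phosphoric acid, washed and scintillation-counted.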

Assay [1] has as its system pSTAT1(2)-luciferase reporter in HeLa cells triggered with human OSM. The assay is described as follows: JAK-STAT signalling assay. The class given is cell-based. Conditions: Homo sapiens, HeLa, read-out: JAK-STAT IC50. The method in brief: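 Compound added 60 min before 33 ng/mL (final) human OSM; after overnight stimulation at 37 °C, luciferase signal from a transiently transfected pSTAT1(2) reporter in HeLa cells was read, with LacZ as internal control. EC50 derived from percent-inhibition dose-response curves.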

For another assay, the target named is T2, human JAK3 (Homo sapiens, UniProt P52333).
T2 construct: catalytic domain (amino acids 781-1124; catalog number PV3855); purchased Invitrogen PV3855
The experiment in a line: JAK3 inhibition assay. Type of assay: biochemical. Conditions: recombinant human JAK3 catalytic domain; polyGT substrate. The method in brief: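 Radiometric kinase assay: 0.5 ng JAK3 with 2.5 μg polyGT in Tris pH 7.5/MgCl2 buffer, 1 μM ATP plus 0.25 μCi 33P-γ-ATP, 1% DMSO, 45 min at 30 °C, stopped with phosphoric acid.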

In another assay the target is T3, human JAK1 (Homo sapiens, UniProt P23458).
T3 construct: catalytic domain, amino acids 866-1154; catalog number PV4774; purchased Invitrogen PV4774
The assay is described as follows: JAK1 inhibition assay (polyGT substrate / Ulight-JAK1 peptide). The class given is biochemical. Conditions: recombinant human JAK1 catalytic domain; polyGT or Ulight-JAK1 peptide assay. The method in brief: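 Signal scaled between vehicle and 10 μM staurosporine. Radiometric polyGT reactions ran 45 min at 30 °C, counted after phosphoric-acid stop. Ulight peptide reactions ran 60 min at room temperature, fluorescence read after adding Eu-PT66 detection mix with EDTA.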

Where [2] appears, read: HeLa cells, pSTAT1(2)-luciferase reporter, human OSM 33 ng/mL.

T3 sequence (P23458 866-1154): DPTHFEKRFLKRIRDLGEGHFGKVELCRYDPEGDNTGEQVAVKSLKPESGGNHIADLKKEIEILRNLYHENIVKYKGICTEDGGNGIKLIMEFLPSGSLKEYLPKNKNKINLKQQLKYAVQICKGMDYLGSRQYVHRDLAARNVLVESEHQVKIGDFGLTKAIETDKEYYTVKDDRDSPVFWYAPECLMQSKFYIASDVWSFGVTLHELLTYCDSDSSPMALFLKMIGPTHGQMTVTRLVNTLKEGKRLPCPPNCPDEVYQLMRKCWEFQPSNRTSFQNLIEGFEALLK
T2 sequence (P52333 781-1124): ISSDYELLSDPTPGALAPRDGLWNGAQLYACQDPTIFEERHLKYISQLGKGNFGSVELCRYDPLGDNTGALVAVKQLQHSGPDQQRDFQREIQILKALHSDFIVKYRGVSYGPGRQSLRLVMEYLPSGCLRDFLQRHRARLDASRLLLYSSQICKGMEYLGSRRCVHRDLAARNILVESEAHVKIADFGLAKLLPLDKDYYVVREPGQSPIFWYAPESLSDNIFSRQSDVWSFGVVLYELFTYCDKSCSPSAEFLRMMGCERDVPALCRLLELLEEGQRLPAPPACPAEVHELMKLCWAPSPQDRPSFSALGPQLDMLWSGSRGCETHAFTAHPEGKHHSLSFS

Consider `CCc1cc(-c2cnccn2)ccc1N(C)c1cc2c(cn1)ncn2C` [Compound 144, N-(2-ethyl-4-(pyrazin-2-yl)phenyl)-N,1-dimethyl-1H-imidazo[4,5-c]pyridin-6-amine], for which the IC50 at human TYK2 was 0.01 to 100 nM; in assay [1] (setting [2]) it was greater than 1000 nM; on human JAK3 it was 501 to 1000 nM; at human JAK1, 0.01 to 100 nM.
Turning to `CCc1cc(C2=CCN(C(=O)N(C)CC#N)CC2)ccc1N(C)c1cc2c(cn1)ncn2C` [Compound 207, N-(Cyanomethyl)-4-(3-ethyl-4-(methyl(1-methyl-1H-imidazo[4,5-c]pyridin-6-yl)amino)phenyl)-N-methyl-5,6-dihydropyridine-1(2H)-carboxamide], the half-inhibitory concentration (IC50) was in the range of 0.01 to 100 nM on human TYK2, 501 to 1000 nM in assay [1], 101 to 500 nM at human JAK3 and 0.01 to 100 nM on human JAK1.
For `CCc1cc(-c2cnc(NC)nc2)ccc1N(C)c1cc2c(cn1)ncn2C` [Compound 211, N-(2-Ethyl-4-(2-(methylamino)pyrimidin-5-yl)phenyl)-N,1-dimethyl-1H-imidazo[4,5-d]pyridin-6-amine], the half-inhibitory concentration (IC50) at human TYK2 lay in the range of 0.01 to 100 nM; in assay [1] (setting [2]), 501 to 1000 nM; at human JAK3, 501 to 1000 nM; at human JAK1, 0.01 to 100 nM.
As for `CCc1cc(C2=CCN(C(=O)NC#N)CC2)ccc1N(C)c1cc2c(cn1)ncn2C` [Compound 203, N-cyano-4-(3-ethyl-4-(methyl(1-methyl-1H-imidazo[4,5-c]pyridin-6-yl)amino)phenyl)-5,6-dihydropyridine-1(2H)-carboxamide], the IC50 at human TYK2 was 0.01 to 100 nM; in assay [1] (setting [2]), greater than 1000 nM; at human JAK3, 0.01 to 100 nM; on human JAK1 it was 0.01 to 100 nM.
As for `CCc1cc(CN2CCOCC2)ccc1N(C)c1cc2c(cn1)ncn2C` [Compound 142, N-(2-ethyl-4-(morpholinomethyl)phenyl)-N,1-dimethyl-1H-imidazo[4,5-c]pyridin-6-amine], the IC50 was 101 to 500 nM on human TYK2, 501 to 1000 nM in assay [1] (setting [2]), greater than 1000 nM at human JAK3 and 0.01 to 100 nM on human JAK1.
As to `CCc1cc(-c2noc(COC)n2)ccc1N(C)c1cc2c(cn1)ncn2C` [Compound 157, N-(2-ethyl-4-(5-(methoxymethyl)-1,2,4-oxadiazol-3-yl)phenyl)-N,1-dimethyl-1H-imidazo[4,5-c]pyridin-6-amine], the 50% inhibitory concentration (IC50) was 0.01 to 100 nM on human TYK2, greater than 1000 nM in assay [1] (setting [2]), greater than 1000 nM on human JAK3 and 0.01 to 100 nM on human JAK1.
`CCc1cc(C2=CCN(C(=O)C(O)C(F)(F)F)CC2)ccc1N(C)c1cc2c(cn1)ncn2C` (stereo not drawn) [Compound 230, 1-(4-(3-ethyl-4-(methyl(1-methyl-1H-imidazo[4,5-c]pyridin-6-yl)amino)phenyl)-5,6-dihydropyridin-1(2H)-yl)-3,3,3-trifluoro-2-hydroxypropan-1-one]: the IC50 fell in the range of 0.01 to 100 nM at human TYK2, 1 to 500 nM in assay [1] (setting [2]), 0.01 to 100 nM on human JAK3 and 0.01 to 100 nM on human JAK1.
With `CCc1cc(-c2ccccc2)ccc1N(C)c1cc2c(cn1)ncn2C` [Compound 164, N-(3-ethylbiphenyl-4-yl)-N,1-dimethyl-1H-imidazo[4,5-c]pyridin-6-amine], the IC50 at human TYK2 fell in the range of 0.01 to 100 nM; in assay [1] (setting [2]) it was 501 to 1000 nM; at human JAK3 it was 101 to 500 nM; at human JAK1, 0.01 to 100 nM.
`CCc1cc(CNCC#N)ccc1N(C)c1cc2c(cn1)ncn2C` [Compound 149, 2-(3-ethyl-4-(methyl(1-methyl-1H-imidazo[4,5-c]pyridin-6-yl)amino)benzylamino) acetonitrile]: the IC50 at human TYK2 was 0.01 to 100 nM; in assay [1] (setting [2]), greater than 1000 nM; on human JAK3, 101 to 500 nM; at human JAK1, 0.01 to 100 nM.
Turning to `CCC(=O)N1CC=C(c2ccc(N(C)c3cc4c(cn3)ncn4C)c(CC)c2)CC1` [Compound 158, 1-(4-(3-ethyl-4-(methyl(1-methyl-1H-imidazo[4,5-c]pyridin-6-yl)amino)phenyl)-5,6-dihydropyridin-1(2H)-yl)propan-1-one], the IC50 at human TYK2 lay in the range of 0.01 to 100 nM; in assay [1] (setting [2]), 1 to 500 nM; on human JAK3, 101 to 500 nM; on human JAK1, 0.01 to 100 nM.
As for `CCc1cc(C2=CCN(C(=O)N(C)CC)CC2)ccc1N(C)c1cc2c(cn1)ncn2C` [Compound 206, N-ethyl-4-(3-ethyl-4-(methyl(1-methyl-1H-imidazo[4,5-c]pyridin-6-yl)amino)phenyl)-N-methyl-5,6-dihydropyridine-1(2H)-carboxamide], the IC50 is 0.01 to 100 nM on human TYK2, greater than 1000 nM in assay [1] (setting [2]), 101 to 500 nM at human JAK3 and 0.01 to 100 nM on human JAK1.
Turning to `CCc1cc(C2=CCN(C(=O)NC)CC2)ccc1N(C)c1cc2c(cn1)ncn2C` [Compound 204, 4-(3-ethyl-4-(methyl(1-methyl-1H-imidazo[4,5-c]pyridin-6-yl)amino)phenyl)-N-methyl-5,6-dihydropyridine-1(2H)-carboxamide], the IC50 at human TYK2 was in the range of 0.01 to 100 nM; in assay [1] (setting [2]), 1 to 500 nM; on human JAK3 it was 0.01 to 100 nM; at human JAK1 it was 0.01 to 100 nM.
In the case of `CCNC(=O)N1CC=C(c2ccc(N(C)c3cc4c(cn3)ncn4C)c(CC)c2)CC1` [Compound 172, N-ethyl-4-(3-ethyl-4-(methyl(1-methyl-1H-imidazo[4,5-c]pyridin-6-yl)amino)phenyl)-5,6-dihydropyridine-1(2H)-carboxamide], the IC50 on human TYK2 was in the range of 0.01 to 100 nM; in assay [1] (setting [2]) it was 1 to 500 nM; at human JAK3 it was 101 to 500 nM; on human JAK1, 0.01 to 100 nM.
On to `CCc1cc(C2=CCN(C(=O)CC(C)(C)O)CC2)ccc1N(C)c1cc2c(cn1)ncn2C` [Compound 200, 1-(4-(3-ethyl-4-(methyl(1-methyl-1H-imidazo[4,5-c]pyridin-6-yl)amino)phenyl)-5,6-dihydropyridin-1(2H)-yl)-3-hydroxy-3-methylbutan-1-one], for which the IC50 on human TYK2 lay within 0.01 to 100 nM; in assay [1] (setting [2]), 501 to 1000 nM; on human JAK3 it was 101 to 500 nM; at human JAK1, 0.01 to 100 nM.
As to `CCN(c1cc2c(cn1)ncn2C)c1ccc(C#N)cc1F` [Compound 266, 4-(ethyl(1-methyl-1H-imidazo[4,5-c]pyridin-6-yl)amino)-3-fluorobenzonitrile], the 50% inhibitory concentration (IC50) (on human TYK2; in assay [1] (setting [2]); on human JAK3; at human JAK1) was greater than 1000 nM throughout.
As for `CCc1ccccc1N(CC(F)F)c1cc2c(cn1)ncn2C` [Compound 284, (2,2-Difluoro-ethyl)-(2-ethyl-phenyl)-(1-methyl-1H-imidazo[4,5-c]pyridin-6-yl)-amine], the IC50 at human TYK2 is 0.01 to 100 nM; in assay [1] (setting [2]), 501 to 1000 nM; on human JAK3, 101 to 500 nM; at human JAK1, 0.01 to 100 nM.
Consider `CCc1cc(C2=CCN(C(=O)Nc3nncs3)CC2)ccc1N(C)c1cc2c(cn1)ncn2C` [Compound 234, 4-(3-Ethyl-4-(methyl(1-methyl-1H-imidazo[4,5-c]pyridin-6-yl)amino)phenyl)-N-(1,3,4-thiadiazol-5-yl)-5,6-dihydropyridine-1(2H)-carboxamide], for which the IC50 fell in the range of 0.01 to 100 nM at human TYK2, 1 to 500 nM in assay [1], 0.01 to 100 nM at human JAK3 and 0.01 to 100 nM on human JAK1.
Take `CCc1cc(-c2cnc(OC3COC3)nc2)ccc1N(C)c1cc2c(cn1)ncn2C` [Compound 212, N-(2-Ethyl-4-(2-(oxetan-3-yloxy)pyrimidin-5-yl)phenyl)-N,1-dimethyl-1H-imidazo[4,5-c]pyridin-6-amine]: the half-inhibitory concentration (IC50) was 101 to 500 nM on human TYK2, greater than 1000 nM in assay [1] (setting [2]), greater than 1000 nM on human JAK3 and 0.01 to 100 nM at human JAK1.
